Experimental findings from ChEMBL document CHEMBL1139870, “Structure-guided optimization of small molecules inhibiting human immunodeficiency virus 1 Tat association with the human coactivator p300/CREB binding protein-associated factor” (J Med Chem, 2007) are described below.

For this assay, the target named is Cyclin-dependent kinase inhibitor 1 (Homo sapiens) (UniProt P38936). Nature of the assay: Effect on p53-induced p21 transcription in response to DNA damage at 5 uM.

Active and inactive are the calls of the source. No cut-off for these calls is given here.

Sequence of Cyclin-dependent kinase inhibitor 1 (Homo sapiens) (P38936 whole entry): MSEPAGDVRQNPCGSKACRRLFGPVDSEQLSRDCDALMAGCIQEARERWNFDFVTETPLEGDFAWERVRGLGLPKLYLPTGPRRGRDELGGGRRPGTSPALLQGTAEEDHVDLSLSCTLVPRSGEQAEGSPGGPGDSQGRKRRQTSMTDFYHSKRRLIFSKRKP

As to `Cc1ccc(NCCCN)c([N+](=O)[O-])c1`, the result was inactive.
`CC(Cl)c1ccc(NCCCN)c([N+](=O)[O-])c1` (configuration not stated): the outcome was inactive.
